Laboratory results published in patent publication US20050014734A1 (Genovate Biotechnology Co., Ltd., priority 2003, published 2005).
“Also recorded” adds a separate entry of the source. Where two headings read alike, the source gives them in different places.

Assays:
[1] = polymorph; cited from earlier work
[2] = tested on: IL-1β; assay: Serum IL-1β by ELISA in the same SLE study; format: in vivo, human; conditions: after 24 weeks of 200 mg/day DHEA orally, mean ± SD, n = 15, before treatment 9.94 ± 8.92
Protocol: (§1) Baseline prednisone (less than 10 mg/day) and other concomitant SLE medications were held constant. The serum levels of cytokines including IL-1, IL-2, interferon-γ, IL-4, and IL-10 were determined by ELISA. The mean change from baseline to 24 weeks of therapy was analyzed. See, below.
(§2) See, Chang et al., Arthritis Rheum., 2002, 46(11):2924-27. The subjects enrolled in the study were adult women with SLE according to American College of Rheumatology (ACR) criteria (see, e.g., Tan, et al., Arthritis Rheum., 1982, 25:1271-7) and who were receiving a prednisone dose (or its corticosteroid equivalent) of 1 to 10 mg/day at the time they entered the study. […]
(§3) Serum testosterone, estradiol and cytokine profiles were measured at baseline and at last visit (i.e., after 24 weeks). Different serum cytokines including […], IL-2, IFN-γ, IL-4, and […] in the subjects were measured using ELISA kits (R&D, Minneapolis, Minn.) according to the manufacturer's instructions.
(§4) Comparisons between groups were done through an independent t-test, while comparisons within groups were done through a paired t-test. All statistical tests were evaluated at a 0.05 level of significance.

[3] = tested on: human marrow and mononuclear cells; conditions: in vitro; cited from earlier work
[4] = tested on: patients with mild to moderate SLE; conditions: cited from earlier work
[5] = tested on: estradiol; assay: Hormone determination: serum estradiol in SLE study; format: in vivo, human; conditions: 200 mg/day DHEA, 24 weeks
Protocol: See, Chang et al., Arthritis Rheum., 2002, 46(11):2924-27. The subjects enrolled in the study were adult women with SLE according to American College of Rheumatology (ACR) criteria (see, e.g., Tan, et al., Arthritis Rheum., 1982, 25:1271-7) and who were receiving a prednisone dose (or its corticosteroid equivalent) of 1 to 10 mg/day at the time they entered the study. Subjects selected for the study had to have active SLE, as defined by a Systemic Lupus Activity Measure (SLAM) score of ≧7, see, e.g., Liang, et al., Arthritis Rheum., 1989, 32:1107-18, and a baseline Systemic Lupus Erythematosus Disease Activity Index (SLEDAI) score ≧2. See, Bombardier, et al., Arthritis Rheum., 1992, 35:630-40.
Subjects that were under treatment with dydroxychloroquine, azathioprine, methotrexate, or cyclophosphamide or a combination thereof, had to have been on a stable regimen with no change in dose and drug combination for at least 6 weeks prior to entry into the study. Subjects who were receiving androgens, immunoglobulins, cyclosporine A, or other immunosuppressive agents (except those noted) were excluded from the study.
as §3

[6] = tested on: peripheral blood mononuclear cells (PBMCs) from adult male lupus patients; conditions: pre-incubation with DHEA, concanavalin A stimulated PBMCs; cited from earlier work
[7] = tested on: IL-10; assay: Serum IL-10 by ELISA in randomized, double-blind, placebo-controlled study in women with active SLE; format: in vivo, human
Protocol: as §1, §2, §3, §4

[8] = tested on: NZB/NZW mouse model of SLE; conditions: cited from earlier work
[9] = tested on: Th2 cells; conditions: Th2 cells stimulated by retrovirus infection; cited from earlier work
[10] = oral administration; cited from earlier work
[11] = 200 mg/day for 12 months, 381 women with mild/moderate SLE
[12] = oral daily doses of 200 mg, mild to moderate SLE, van Vollenhoven et al.

For C[C@]12CC[C@H](O)CC1=CC[C@@H]1[C@@H]2CC[C@]2(C)C(=O)CC[C@@H]12 [DHEA form I, dehydroepiandrosterone], the Stability [1] is given as “highly stable”.
In the case of C[C@]12CC[C@H](O)CC1=CC[C@@H]1[C@@H]2CC[C@]2(C)C(=O)CC[C@@H]12 [DHEA, dehydroepiandrosterone], the IL-1β after treatment [2] is given as 9.20 ± 6.49 pg/mL, the “Secretion of IL-6” value [3] is given as “reduce secretion of IL-6” and the Bone mineral density [4, 11] is given as “prevented loss of bone mineral density in a significantly greater proportion of patients than placebo”. For the same compound, the “SLE disease and symptoms” value [4, 11] was “improved or stabilized SLE disease and its symptoms without clinical deterioration”, the Prednisone reduction ([4]; 200 mg/day, women with active lupus, phase II/III, Petri et al. 2002) was “enabled prednisone reduction to physiologic levels in a significantly greater proportion of patients than placebo” and the “Steroid-sparing effect and flares” value [4, 12] was “may have steroid-sparing effects and reduce flares”. The Tolerability [4, 12] was “well-tolerated”, the Tolerability ([4]; women with lupus, Chang et al. 2002) was “well-tolerated” and the “Estradiol change at last visit, mean” value ([5]; baseline mean 123) was -48 pg/mL. The “Estradiol change at last visit, median” value ([5]; baseline median 104) was -39 pg/mL, the “Median decrease in estradiol” value ([5]; placebo 31.5) was 39.3 pg/mL and the IL-4 production [6] was “reduced the IL-4 production”. The “Effect on IL-10 level (in words)” value ([7]; 200 mg/day DHEA for 24 weeks, women with SLE, from baseline) was “significant reduction; also recorded: significant IL-10 suppression”, the IL-10 after treatment ([7]; serum, last visit after 24 weeks of 200 mg/day DHEA orally, mean ± SD, n = 15, before treatment 9.21 ± 6.75, p=0.045 vs placebo, p=0.029 vs baseline) was 1.89 ± 1.47 pg/mL and the “Onset of disease and mortality” value [8] was “significantly delayed onset of disease and a reduction in mortality”. The “Production of IL-6 and tumor necrosis factor alpha” value [9] was “suppressed the production of cytokines IL-6 and tumor necrosis factor alpha”.
In the case of C[C@]12CC[C@H](O)CC1=CC[C@@H]1[C@@H]2CC[C@]2(C)C(=O)CC[C@@H]12 [DHEA form II, dehydroepiandrosterone], the Rate of absorption [10] is given as “rapid rate of absorption (greater than the form I polymorph)” and the Stability [1] is given as “stable under typical ambient conditions”.
